Results from patent US20230250066A1, “HERBICIDAL CINNOLINE DERIVATIVES” (SYNGENTA CROP PROTECTION AG, priority 2020, published 2023).

How the values were obtained:
Type in all cases: in vivo
Zea mays (ZEAMX) [1] = experiment: Post-emergence herbicidal test; conditions: 1000 g/ha unless otherwise stated, evaluated after 13 days
Procedure, shortened: (§1)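 Scored 0–5 for percent damage (0=0%, 5=81-100%) 13 days after spraying, typically at 1000 g/ha in acetone/water (50:50) plus 0.5% Tween 20. Post-emergence plants treated at 8 days old, grown at 24° C/16° C day/night, 14 h light, 65% humidity, watered twice daily.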

Setaria faberi (SETFA) [2] = experiment: Post-emergence herbicidal test; conditions: 1000 g/ha unless otherwise stated, evaluated after 13 days
Procedure, shortened: as §1

[3] = test system: Abutilon theophrasti (ABUTH); experiment: Post-emergence herbicidal test; conditions: 1000 g/ha unless otherwise stated, evaluated after 13 days
Procedure, shortened: as §1

[4] = test system: Ipomoea hederacea (IPOHE); experiment: Post-emergence herbicidal test; conditions: 1000 g/ha unless otherwise stated, evaluated after 13 days
Procedure, shortened: as §1

[5] = test system: Amaranthus retoflexus (AMARE); experiment: Post-emergence herbicidal test; conditions: 1000 g/ha unless otherwise stated, evaluated after 13 days
Procedure, shortened: as §1

[6] = test system: Echinochloa crus-galli (ECHCG); experiment: Post-emergence herbicidal test; conditions: 1000 g/ha unless otherwise stated, evaluated after 13 days
Procedure, shortened: as §1

Zea mays (ZEAMX) [7] = experiment: Pre-emergence herbicidal test; conditions: 1000 g/ha, evaluated after 13 days
[8] = test system: Echinochloa crus-galli (ECHCG); experiment: Pre-emergence herbicidal test; conditions: 1000 g/ha, evaluated after 13 days
Setaria faberi (SETFA) [9] = experiment: Pre-emergence herbicidal test; conditions: 1000 g/ha, evaluated after 13 days
[10] = test system: Abutilon theophrasti (ABUTH); experiment: Pre-emergence herbicidal test; conditions: 1000 g/ha, evaluated after 13 days
[11] = test system: Ipomoea hederacea (IPOHE); experiment: Pre-emergence herbicidal test; conditions: 1000 g/ha, evaluated after 13 days
[12] = test system: Amaranthus retoflexus (AMARE); experiment: Pre-emergence herbicidal test; conditions: 1000 g/ha, evaluated after 13 days

Structure (SMILES) | percentage damage caused to the plant, ZEAMX (five-point scale) (Zea mays (ZEAMX) [1]) | percentage damage caused to the plant, SETFA (five-point scale) (Setaria faberi (SETFA) [2]) | percentage damage caused to the plant, ABUTH (five-point scale) [3] | percentage damage caused to the plant, IPOHE (five-point scale) [4] | percentage damage caused to the plant, AMARE (five-point scale) [5] | percentage damage caused to the plant, ECHCG (five-point scale) [6] | percentage damage caused to the plant, five-point scale, ZEAMX (Zea mays (ZEAMX) [7]) | percentage damage caused to the plant, five-point scale, ECHCG [8] | percentage damage caused to the plant, five-point scale, SETFA (Setaria faberi (SETFA) [9]) | percentage damage caused to the plant, five-point scale, ABUTH [10] | percentage damage caused to the plant, five-point scale, IPOHE [11] | percentage damage caused to the plant, five-point scale, AMARE [12]
CC(OC(=O)c1nn(-c2ccc(OC(F)(F)F)cc2)c2cccc(S(C)(=O)=O)c2c1=O)C1CC1 (stereo not drawn) [Compound P74, 1-cyclopropylethyl 5-methylsulfonyl-4-oxo-1-[4-(trifluoromethoxy)phenyl]cinnoline-3-carboxylate] | 1 (1=10-20%) | 4 (4=61-80%) | 1 (1=10-20%) | 0 (0=0%) | 1 (1=10-20%) | 4 (4=61-80%) | 0 (0=0%) | 4 (4=61-80%) | 5 (5=81-100%) | 0 (0=0%) | 0 (0=0%) | 0 (0=0%)
CCCCCOC(=O)c1nn(-c2ccc(OC(F)(F)F)cc2)c2cccc(S(C)(=O)=O)c2c1=O [Compound P75, penyl 5-methylsulfonyl-4-oxo-1-[4-(trifluoromethoxy)phenyl]cinnoline-3-carboxylate] | 0 (0=0%) | 4 (4=61-80%) | 0 (0=0%) | 0 (0=0%) | 0 (0=0%) | 3 (3=41-60%) | 1 (1=10-20%) | 4 (4=61-80%) | 4 (4=61-80%) | 0 (0=0%) | 0 (0=0%) | 0 (0=0%)
CN(C)CCOC(=O)c1nn(-c2ccc(OC(F)(F)F)cc2)c2cccc(S(C)(=O)=O)c2c1=O [Compound P76, 2-(dimethylamino)ethyl 5-methylsulfonyl-4-oxo-1-[4-(trifluoromethoxy)phenyl]cinnoline-3-carboxylate] | 1 (1=10-20%) | 4 (4=61-80%) | 2 (2=21-40%) | 1 (1=10-20%) | 1 (1=10-20%) | 3 (3=41-60%) | 0 (0=0%) | 3 (3=41-60%) | 4 (4=61-80%) | 1 (1=10-20%) | 0 (0=0%) | 0 (0=0%)
CCCCCCCOC(=O)c1nn(-c2ccc(OC(F)(F)F)cc2)c2cccc(S(C)(=O)=O)c2c1=O [Compound P77, heptyl 5-methylsulfonyl-4-oxo-1-[4-(trifluoromethoxy)phenyl]cinnoline-3-carboxylate] | 0 (0=0%) | 4 (4=61-80%) | 1 (1=10-20%) | 0 (0=0%) | 0 (0=0%) | 3 (3=41-60%) | 0 (0=0%) | 3 (3=41-60%) | 5 (5=81-100%) | 0 (0=0%) | 0 (0=0%) | 0 (0=0%)
C#CCOC(=O)c1nn(-c2ccc(OC(F)(F)F)cc2)c2cccc(S(C)(=O)=O)c2c1=O [Compound P79, prop-2-ynyl 5-methylsulfonyl-4-oxo-1-[4-(trifluoromethoxy)phenyl]cinnoline-3-carboxylate] | 1 (1=10-20%) | 4 (4=61-80%) | 1 (1=10-20%) | 1 (1=10-20%) | 0 (0=0%) | 4 (4=61-80%) | 1 (1=10-20%) | 5 (5=81-100%) | 5 (5=81-100%) | 0 (0=0%) | 1 (1=10-20%) | 0 (0=0%)
C=CCOC(=O)c1nn(-c2ccc(OC(F)(F)F)cc2)c2cccc(S(C)(=O)=O)c2c1=O [Compound P80, allyl 5-methylsulfonyl-4-oxo-1-[4-(trifluoromethoxy)phenyl]cinnoline-3-carboxylate] | 1 (1=10-20%) | 4 (4=61-80%) | 1 (1=10-20%) | 1 (1=10-20%) | 0 (0=0%) | 3 (3=41-60%) | 1 (1=10-20%) | 4 (4=61-80%) | 5 (5=81-100%) | 0 (0=0%) | 0 (0=0%) | 0 (0=0%)
COC(=O)COC(=O)c1nn(-c2ccc(OC(F)(F)F)cc2)c2cccc(S(C)(=O)=O)c2c1=O [Compound P81, (2-methoxy-2-oxo-ethyl) 5-methylsulfonyl-4-oxo-1-[4-(trifluoromethoxy)phenyl]cinnoline-3-carboxylate] | 1 (1=10-20%) | 4 (4=61-80%) | 1 (1=10-20%) | 0 (0=0%) | 1 (1=10-20%) | 3 (3=41-60%) | 0 (0=0%) | 4 (4=61-80%) | 5 (5=81-100%) | 0 (0=0%) | 0 (0=0%) | 0 (0=0%)
CCCCCCCCCOC(=O)c1nn(-c2ccc(OC(F)(F)F)cc2)c2cccc(S(C)(=O)=O)c2c1=O [Compound P82, nonyl 5-methylsulfonyl-4-oxo-1-[4-(trifluoromethoxy)phenyl]cinnoline-3-carboxylate] | 1 (1=10-20%) | 0 (0=0%) | 1 (1=10-20%) | 1 (1=10-20%) | 0 (0=0%) | 1 (1=10-20%) | 0 (0=0%) | 1 (1=10-20%) | 3 (3=41-60%) | 0 (0=0%) | 0 (0=0%) | 0 (0=0%)
